Data from PMC8624038, “Understanding the Mechanism of Action of NAI-112, a Lanthipeptide with Potent Antinociceptive Activity” (Molecules, 2021).
Read-outs that look alike come from different tables or passages of the source.

Assays:
[1] = tested on: S. aureus mutant strain R8.1; test: microbe, parasite or virus in culture; type: cell-based, Staphylococcus aureus; conditions: for MIC: 24 h
Description: (§1) All experiments were performed with S. aureus ATCC6538P. The strain was propagated at 37 °C in Mueller–Hinton Broth (BD Difco^TM) containing 20 mg/L of CaCl2 and 10 mg/L of MgCl2 (MHBC medium). For selection of resistant strains by direct plating, S. aureus cultures were grown until OD600 of 0.7, corresponding to 5 × 10^8 CFU/mL, centrifuged, and resuspended with fresh medium to 1 × 10^10 CFU/mL. Then, 100 µL were spread on Muller–Hinton Agar (BD Difco^TM) supplemented with 160 µg/mL or 640 µg/mL of NAI-112 and incubated at 37 °C. Colonies were scored after 10 days. For selection of resistant mutants by serial passages, MHBC medium containing serial, twofold dilutions of NAI-112, starting from 512 µg/mL down to 0.5 µg/mL, was inoculated with 1 × 10^5 CFU/mL in a 96-well microtiter plate. Cultures were incubated overnight at 37 °C. The culture at the highest concentration that supported growth was diluted to 1 × 10^5 CFU/mL with fresh medium and added to a fresh plate containing serial dilutions of NAI-112 as before, followed by overnight incubation. This process was continued for 15 passages. From cultures at passage 8 (grown at 64 µg/mL) and passage 15 (grown at 256 µg/mL), single colonies were isolated and named R8.1 and R8.2 (from the eighth series) and R15.1–15.5 (from the fifteenth series).
(§2) MICs were determined by the broth microdilution methodology in sterile 96-well microtiter plates according to Clinical and Laboratory Standards Institute (CLSI) guidelines, as described by Iorio et al.. When indicated, bovine serum albumin was added to MHBC medium at 0.02% (w/v). […] Growth curves were measured under the same conditions by recording the optical density at 595 nm (OD595) over 20 h using a Synergy 2.0 plate reader (BioTeck, Winooski, VT, USA).

S. aureus ATCC6538P (wt) = test: microbe, parasite or virus in culture; type: cell-based, Staphylococcus aureus; conditions: 24 h
Description: as §1, §2

[2] = tested on: S. aureus mutant strain R15.5; test: microbe, parasite or virus in culture; type: cell-based, Staphylococcus aureus; conditions: for MIC: 24 h; for MIC Ratio (R15.1 to wt): ratio of MICs, mutant to wt
Description: as §1, §2

[3] = cited from earlier work
[4] = class II lantibiotics; ref [29],[30],[31],[32]; cited from earlier work
From the text: A few studies have identified the molecular targets of lanthipeptides. […] Two-peptide lantibiotics, ...

virus = conditions: ref [7]; cited from earlier work
From the text: (§3) NAI-112 is a labionine (Lab)-containing lanthipeptide with a glycosylated tryptophan residue and an unusual methyl-Lab bridge. It was discovered in a phenotypic screening program for inhibitors of bacterial cell wall biosynthesis. […] At the time of its discovery, there was only one precedent of Lab-containing lanthipeptides, the labyrinthopeptins. In particular, despite having unrelated amino acid sequences, NAI-112 and labyrinthopeptin A2 share a similar ri ...

neuropathic pain = conditions: ref [7]; cited from earlier work
From the text: as §3

TRPV1 [5] = conditions: ref [24], cited from earlier work
From the text: The results from the lipidomic experiments in mice, from the binding assay analyzed in MS and from the analysis of the S. aureus mutants resistant to NAI-112, are consistent with the hypothesis that NAI-112 binds to one or more phosphate-containing lipids and, by doing so, interferes with the processing of these lipids by relevant enzymes. In mice, this interference translates in lower LPA levels.

TRPV1 [6] = conditions: cited from earlier work
From the text: In mice, this interference translates in lower LPA levels.

[7] = class I lanthipeptides, followed by pore formation or membrane disruption, ref [25],[26],[27]

## CC[C@H]1OC(=O)[C@H](C)[C@@H](O[C@H]2C[C@@](C)(OC)[C@@H](O)[C@H](C)O2)[C@H](C)[C@@H](O[C@@H]2O[C@H](C)C[C@H](N(C)C)[C@H]2O)[C@](C)(O)C[C@@H](C)C(=O)[C@H](C)[C@@H](O)[C@]1(C)O [Erythromycin, erythromycin]
[1]; Staphylococcus aureus
  MIC: 0.125 µg/mL
S. aureus ATCC6538P (wt); Staphylococcus aureus, ATCC6538P
  MIC: 0.125 µg/mL
[2]; Staphylococcus aureus
  MIC: 0.125 µg/mL
[2]
  MIC Ratio (R15.1 to wt): 1

## CO[C@H]1/C=C/O[C@@]2(C)Oc3c(C)c(O)c4c(O)c(c(/C=N/N5CCN(C)CC5)c(O)c4c3C2=O)NC(=O)/C(C)=C\C=C\[C@H](C)[C@H](O)[C@@H](C)[C@@H](O)[C@@H](C)[C@H](OC(C)=O)[C@@H]1C [Rifampicin, rifampicin]
[1]; Staphylococcus aureus
  MIC: 0.004 µg/mL
S. aureus ATCC6538P (wt); Staphylococcus aureus, ATCC6538P, wt, MHBC medium, 1 × 10^5 CFU/mL, 37 °C, broth microdilution (CLSI), read-out: MIC
  MIC: 0.004 µg/mL
[2]; Staphylococcus aureus
  MIC: 0.004 µg/mL
[2]
  MIC Ratio (R15.1 to wt): 1

## CN[C@H](CC(C)C)C(=O)N[C@H]1C(=O)N[C@@H](CC(N)=O)C(=O)N[C@H]2C(=O)N[C@H]3C(=O)N[C@H](C(=O)N[C@H](C(=O)O)c4cc(O)cc(O)c4-c4cc3ccc4O)[C@H](O)c3ccc(c(Cl)c3)Oc3cc2cc(c3O[C@@H]2O[C@H](CO)[C@@H](O)[C@H](O)[C@H]2O[C@H]2C[C@](C)(N)[C@H](O)[C@H](C)O2)Oc2ccc(cc2Cl)[C@H]1O [Vancomycin, vancomycin]
[1]; R8.1
  shift in MIC relative to wt, in words: modest but consistent shift
[1]; R8.1, MHBC medium, 1 × 10^5 CFU/mL, 37 °C, broth microdilution (CLSI)
  MIC: 1 µg/mL
S. aureus ATCC6538P (wt); wt, MHBC medium, 1 × 10^5 CFU/mL, 37 °C, broth microdilution (CLSI)
  MIC: 0.5 µg/mL
[2]; R15.5
  shift in MIC relative to wt, in words: modest but consistent shift
[2]; R15.5, MHBC medium, 1 × 10^5 CFU/mL, 37 °C, broth microdilution (CLSI)
  MIC: 2 µg/mL
[2]
  MIC Ratio (R15.1 to wt): 4
[3]; ref [14],[15]
  binding to lipid II: bind to the essential peptidoglycan precursor lipid II

## cinnamycin
[4]
  binding to phosphatidylethanolamine-containing lipids: bind to phosphatidylethanolamine-containing lipids

## duramycin
[4]
  binding to phosphatidylethanolamine-containing lipids: bind to phosphatidylethanolamine-containing lipids

## gallidermin
[3]; [7]
  binding to lipid II: bind to lipid II

## labyrinthopeptin A2
virus
  antiviral activity: moderate antiviral activity
Neuropathic pain
  activity in a neuropathic pain model: highly active

## lacticin 3147
[3]; through mersacidin-like component, ref [33]
  complex with lipid II: form a complex with lipid II

## lysophosphatidic acid [LPA]
TRPV1 [5]; Trpv1-null animals
  acute pain-like behaviors: substantially reduced
TRPV1 [5]; control mice
  acute pain-like behaviors: produces acute pain-like behaviors
TRPV1 [6]; ref [10],[11]
  TRPV1 receptor activation: activates the TRPV1 receptor
TRPV1 [6]; ref [24]
  direct binding to TRPV1 ion channel: LPA binding directly to an ion channel

## mersacidin
[3]; class II lantibiotics, ref [28]
  binding to lipid II: bind to lipid II

## nisin
[3]; [7]
  binding to lipid II: bind to lipid II
[3]; in membranes of bacterial cells, ref [34]
  binding to pyrophosphate cage of lipid II: binding of nisin to the pyrophosphate cage of lipid II

## ramoplanin
[1]; R8.1
  shift in MIC relative to wt, in words: modest but consistent shift
[1]; R8.1, in the presence of 0.02% BSA, MHBC medium, 1 × 10^5 CFU/mL, 37 °C
  MIC: 0.25 µg/mL
S. aureus ATCC6538P (wt); wt, in the presence of 0.02% BSA, MHBC medium, 1 × 10^5 CFU/mL, 37 °C
  MIC: 0.06 µg/mL
[2]; R15.5
  shift in MIC relative to wt, in words: modest but consistent shift
[2]; R15.5, in the presence of 0.02% BSA, MHBC medium, 1 × 10^5 CFU/mL, 37 °C
  MIC: 0.25 µg/mL
[2]; in the presence of 0.02% BSA
  MIC Ratio (R15.1 to wt): 4
[3]; ref [14],[15]
  binding to lipid II: bind to the essential peptidoglycan precursor lipid II
